From PMC11098465, “A comparative analysis of peptide-delivered antisense antibiotics using diverse nucleotide mimics” (RNA, 2024)
“And” between values parts separate entries of the source, which are not always exact repeats. Equal values may be shown once.

What was measured:
[1] = system: 10 nt long target mRNA (acpP, fully complementary 10mer RNA fragment); assay: Thermal UV melting curves of ASO:RNA duplexes; assay type: binding, Salmonella; settings: unconjugated ASO and 10 nt target RNA, 2 µM each mixed 1:1; 100 mM NaCl, 10 mM phosphate, pH 7.0; UV 260 nm, 10-90°C at 0.5°C/min, five ramps; two-state fit
Method: Next, we assessed the melting temperatures of each ASO:RNA duplex across a temperature range of 10°C–90°C (Fig. 3A; Supplemental Fig. S3). In this experiment, we used a fully complementary 10mer RNA fragment instead of the 40 nt long target RNA sequence, because the longer target might form internal secondary structures that could interfere with the measurement of the melting temperature. […] This is in line with previous observations ([Freier and Altmann 1997]) and our EMSA results (Fig. 2). […] The melting temperature of RNA-F and RNA-MOE was around 56°C (Table 1).
Three hundred microliters of 10 nt long target mRNA (2 µM) was mixed with 300 µL of each of the ASOs (2 µM) in phosphate buffer (100 mM NaCl, 10 mM phosphate, pH 7.0). Thermal UV melting curves were recorded at Agilent Cary UV–Vis Multicell Peltier. Before measurement, the samples were overlaid with silicon oil to prevent evaporation during heating. Five temperature ramps with a heating/cooling rate of 0.5°C/min between 10°C and 90°C at 260 nm were collected. All the melting curves were plotted using OriginPro 2023, fit to a two-state transition model with upper and lower baselines to determine Tm as previously reported ([Dietzsch et al. 2022]).

[2] = system: 5′ Cy5-labeled acpP target RNA (40 nt); assay: Electrophoretic mobility shift assay (EMSA); assay type: binding, Salmonella; parameters: key to mRNA hybridization (EMSA): +++: Effect strength is represented by additional (+) signs.; ++: Effect strength is represented by additional (+) signs.; Effect strength is represented by additional (+) signs; settings: unconjugated ASO, ASO:RNA 0.3:1 to 2.5:1; for Shift of target mRNA in EMSA (in words): 30 min RT, 15% native PAA gel; for mRNA hybridization (EMSA): summary grade
Method: To compare the ability of the unconjugated ASOs to hybridize to the target transcript, we used electrophoretic mobility shift assays (EMSAs), thermal UV melting curves, and microscale thermophoresis (MST). We first conducted EMSAs using a 40 nt target RNA sequence (nt −20 to +20 relative to the acpP translational start codon), which was 5′-labeled with a Cy5 dye. Sequence-specific ASOs were added at defined ASO:RNA ratios, while water or a scrambled PNA (PNAscr) were used as negative controls. We performed these binding studies with unconjugated ASOs, because the KFF carrier peptide is cleaved during transport into the bacterial cytoplasm ([Yavari et al. 2021]). […] The DNA-PTO modification is known to reduce the binding affinity of the ASO to its target RNA ([Chan et al. 2006]), and a 10mer might be too short to mediate interactions under our experimental conditions. To test if an excess of unspecific RNA impacts target binding, we also included samples that contained 1 μg yeast tRNA.
The EMSA was performed with a Cy5 5′-labeled RNA (purchased from Eurofins) encompassing the sequence spanning nucleotides −20 to +20 of acpP relative to the translation start codon. For annealing, TM buffer (10 mM Tris-HCl, 50 mM MgCl2) was used. First, 20 µM RNA was denatured by incubation at 95°C for 5 min followed by placement on ice. Then 1 µL of RNA (spiked with or without 1 µL of yeast tRNA [Ambion at a concentration of 10 mg/mL]) was added to PCR tubes containing 8 µL of water. To this, 1 µL of ASOs at the indicated concentrations (6.25–50 µM) was added to adjust ASO:RNA ratios of 0.3:1 to 2.5:1. As negative control, water was added instead of ASO, while a PNAscr sequence served as sequence-unspecific negative control (Fig. 2; Supplemental Fig. S2). These mixtures were incubated for 30 min at room temperature (RT), followed by the addition of 10 µL 2× gel loading (GL) buffer for subsequent loading on native 15% PAA RNA gel without urea (20 µL/sample; 6 µL of a 50 bp DNA marker + 14 µL 1× GL). The gel was run at 100–120 V for 2–3 h, concomitantly stained with SYBR gold (Thermo Fisher Scientific) for 15 min and imaged on Geldoc (Isogen Life Science B.V.).

Salmonella = Salmonella growth assay (MIC); assay type: cell-based, Salmonella enterica serovar Typhimurium strain SL1344; settings: for Antibacterial activity (MIC): ASO conjugated to the KFF carrier peptide, ~10^5 cfu/mL in noncation-adjusted MHB, 37°C, OD600, highest concentration 10 µM; for Antibacterial activity (MIC) / Effect of KFF-ASO conjugates on Salmonella growth (in words): 24 h; for Effect of KFF-ASO conjugates on Salmonella growth (in words): up to 10 µM; for Effect of KFF-ASO conjugates on Salmonella growth (in words) / Bactericidal concentration: KFF conjugates; for Bactericidal concentration: spotting of ASO-treated bacterial samples at 24 h
Method: Next, we sought to compare the antibacterial efficacy of the ASOs upon delivery into bacterial cells with a KFF carrier peptide. Therefore, we measured the growth kinetics of Salmonella in the presence of the ASOs for 24 h (Fig. 4). Because we have previously shown that the KFF peptide has a minimum inhibitory concentration (MIC) of >10 µM ([Popella et al. 2021]), we choose 10 µM as a cutoff point in our experiments. […] Spotting of the ASO-treated bacterial samples at 24 h confirmed that PMO and PNA were bactericidal at 10 and 1.25 µM, respectively (Supplemental Fig. S6B).
An overnight bacterial cell culture was diluted 1:100 in fresh MHB and grown to OD600 0.5. The culture was then diluted to ∼10^5 cfu/mL in noncation-adjusted MHB. Subsequently, 190 µL bacterial solution was dispensed into a 96-well plate (Thermo Fisher Scientific) along with 10 µL of a 200 µM solution of the ASOs. Growth was monitored by measuring the OD at 600 nm every 20 min in a Synergy H1 plate reader (Biotek) with continuous double-orbital shaking (237 cpm) at 37°C for 24 h.

DNA-PTO: phosphorothioate-modified DNA 10mer ASO, sequence CTCATACTCT, targeting acpP −5 to +5 (DNA, all phosphorothioate, methylation of C not given here)
Tm of ASO:mRNA complexes [1]: 25.8 °C and 25.8 ± 0.7 °C
Shift of target mRNA in EMSA (in words) [2]: did not interact with the target mRNA at any of the concentrations tested
Antibacterial activity (MIC) (Salmonella): >10 µM
Effect of KFF-ASO conjugates on Salmonella growth (in words) (Salmonella): slight growth retardation was observed at 5 and 10 µM

PNA: peptide nucleic acid 10mer ASO, sequence CTCATACTCT, targeting acpP −5 to +5 (all peptide nucleic acid (PNA))
Tm of ASO:mRNA complexes [1]: 44.3 °C and 44.3 ± 1.1 °C
Shift of target mRNA in EMSA (in words) [2]: concentration-dependent shift of the target mRNA, starting at a 0.3:1 ratio of ASO:RNA
mRNA hybridization (EMSA) [2]: +++
Antibacterial activity (MIC) (Salmonella): 1.25 µM
Bactericidal concentration (Salmonella): 1.25 µM

PMO: phosphorodiamidate morpholino 10mer ASO, sequence CTCATACTCT, targeting acpP −5 to +5 (all phosphorodiamidate morpholino (PMO))
Tm of ASO:mRNA complexes [1]: 41.8 °C and 41.8 ± 0.6 °C
Shift of target mRNA in EMSA (in words) [2]: limited binding even at 2.5× excess
mRNA hybridization (EMSA) [2]: +
Antibacterial activity (MIC) (Salmonella): 10 µM
Bactericidal concentration (Salmonella): 10 µM

RNA-F: 2′-fluorinated RNA 10mer ASO, sequence CTCATACTCT, targeting acpP −5 to +5 (all 2'-fluoro, backbone and T or U not given here)
Shift of target mRNA in EMSA (in words) [2]: concentration-dependent shift of the target mRNA, starting at a 0.3:1 ratio of ASO:RNA
mRNA hybridization (EMSA) [2]: ++
Antibacterial activity (MIC) (Salmonella): >10 µM
Effect of KFF-ASO conjugates on Salmonella growth (in words) (Salmonella): slight growth retardation was observed at 5 and 10 µM

RNA-MOE: 2′-methoxyethylated RNA 10mer ASO, sequence CTCATACTCT, targeting acpP −5 to +5 (all 2'-MOE, backbone and methylation of C not given here)
Shift of target mRNA in EMSA (in words) [2]: concentration-dependent shift of the target mRNA, starting at a 0.3:1 ratio of ASO:RNA
mRNA hybridization (EMSA) [2]: ++
Antibacterial activity (MIC) (Salmonella): >10 µM
Effect of KFF-ASO conjugates on Salmonella growth (in words) (Salmonella): slight growth retardation was observed at 5 and 10 µM

LNA: 2′–4′-locked RNA 10mer ASO, sequence CTCATACTCT, targeting acpP −5 to +5 (all LNA, backbone and methylation of C not given here)
Tm of ASO:mRNA complexes [1]: 87.4 °C and 87.4 ± 2 °C
Shift of target mRNA in EMSA (in words) [2]: concentration-dependent shift of the target mRNA, starting at a 0.3:1 ratio of ASO:RNA
mRNA hybridization (EMSA) [2]: +++
Antibacterial activity (MIC) (Salmonella): >10 µM
Effect of KFF-ASO conjugates on Salmonella growth (in words) (Salmonella): slight growth retardation was observed at 5 and 10 µM

RNA-OMe: 2′-methylated RNA 10mer ASO, sequence CTCATACTCT, targeting acpP −5 to +5 (all 2'-O-methyl, backbone and T or U not given here)
Tm of ASO:mRNA complexes [1]: 48.3 °C and 48.3 ± 0.8 °C
Shift of target mRNA in EMSA (in words) [2]: did not interact with the target mRNA at any of the concentrations tested
Antibacterial activity (MIC) (Salmonella): >10 µM
Effect of KFF-ASO conjugates on Salmonella growth (in words) (Salmonella): lacked any antibacterial activity
